Counter-ions that a name gives are not always drawn.
Molecular target: T1, Estrogen Receptor (ERα) in MCF-7 human ductal carcinoma breast cell line (Homo sapiens, UniProt P03372)
T1 construct: endogenous in cells; host or cells: MCF-7
T1 sequence (P03372 1-595): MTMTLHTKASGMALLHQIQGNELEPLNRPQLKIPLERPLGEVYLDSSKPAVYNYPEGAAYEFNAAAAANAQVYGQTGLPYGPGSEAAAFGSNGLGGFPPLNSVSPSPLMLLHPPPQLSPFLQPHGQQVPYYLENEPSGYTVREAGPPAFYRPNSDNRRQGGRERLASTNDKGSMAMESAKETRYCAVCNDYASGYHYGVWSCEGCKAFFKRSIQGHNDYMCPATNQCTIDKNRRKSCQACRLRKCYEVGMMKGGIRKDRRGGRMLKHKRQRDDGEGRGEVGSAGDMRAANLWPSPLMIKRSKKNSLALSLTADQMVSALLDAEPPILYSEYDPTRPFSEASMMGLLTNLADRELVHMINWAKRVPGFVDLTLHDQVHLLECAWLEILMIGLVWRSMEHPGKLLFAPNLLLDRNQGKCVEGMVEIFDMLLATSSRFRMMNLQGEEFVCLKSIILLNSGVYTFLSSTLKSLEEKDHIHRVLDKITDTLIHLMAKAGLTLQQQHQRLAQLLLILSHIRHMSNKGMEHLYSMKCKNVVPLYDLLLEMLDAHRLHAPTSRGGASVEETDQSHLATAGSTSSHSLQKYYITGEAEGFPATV
Assay: MCF-7 ER degradation assay (cell based immuno-fluorescence)
Conditions: MCF-7 cells; for ER degradation ≥ 90% at 0.3 μM: ER degradation by fulvestrant at 0.3 μM is defined as 100%; for DC50: 18-22 hours incubation, 50% reduction of ERα expression, single experiment or average of two or more, read-out: MCF-7 ER degradation IC50
In short: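 MCF-7 human ductal carcinoma breast cells were seeded at 3.75×10^4 cells per mL (40 μL per well) in 384 well plates with phenol red free DMEM containing 2 mM L-Glutamine and 5% (v/v) Charcoal/Dextran treated foetal calf serum. After overnight culture, compounds were acoustically dispensed, incubated 18-22 hours, then cells were formaldehyde-fixed and immunostained for ERα.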

Compound | ER degradation ≥ 90% at 0.3 μM | DC50 [nM]
Cc1ncsc1-c1ccc(CNC(=O)[C@@H]2C[C@@H](O)CN2C(=O)[C@@H](NC(=O)COCCCCOCCCOc2cc(F)c([C@@H]3c4[nH]c5ccccc5c4C[C@@H](C)N3CC(C)(C)F)c(F)c2)C(C)(C)C)cc1 [Example 93] | • | 0.9
Cc1ncsc1-c1ccc(CNC(=O)[C@@H]2C[C@@H](O)CN2C(=O)[C@@H](NC(=O)COCCCOCCOc2cc(F)c([C@@H]3c4[nH]c5ccccc5c4C[C@@H](C)N3CC(F)(F)F)c(F)c2)C(C)(C)C)cc1 [Example 94, (2S,4R)-1-((S)-2-(2-(3-(2-(3,5-Difluoro-4-((1R,3R)-3-methyl-2-(2,2,2-trifluoroethyl)-2,3,4,9-tetrahydro-1H-pyrido[3,4-b]indol-1-yl)phenoxy)ethoxy)propoxy)acetamido)-3,3-dimethylbutanoyl)-4-hydroxy-N-(4-(4-methylthiazol-5-yl)benzyl)pyrrolidine-2-carboxamide] | • | 0.6
Cc1ncsc1-c1ccc(CNC(=O)[C@@H]2C[C@@H](O)CN2C(=O)[C@@H](NC(=O)COCCOCCOCCOc2cc(F)c([C@@H]3c4[nH]c5ccccc5c4C[C@@H](C)N3CC(F)(F)F)c(F)c2)C(C)(C)C)cc1 [Example 95, (2S,4R)-1-((S)-2-(tert-Butyl)-14-(3,5-difluoro-4-((1R,3R)-3-methyl-2-(2,2,2-trifluoroethyl)-2,3,4,9-tetrahydro-1H-pyrido[3,4-b]indol-1-yl)phenoxy)-4-oxo-6,9,12-trioxa-3-azatetradecanoyl)-4-hydroxy-N-(4-(4-methylthiazol-5-yl)benzyl)pyrrolidine-2-carboxamide] | •• | 0.4
Cc1ncsc1-c1ccc(CNC(=O)[C@@H]2C[C@@H](O)CN2C(=O)[C@@H](NC(=O)COCCCCCOc2cc(F)c([C@@H]3c4[nH]c5ccccc5c4C[C@@H](C)N3CC(F)(F)F)c(F)c2)C(C)(C)C)cc1 [Example 96] | • | 1.3
Cc1ncsc1-c1ccc(CNC(=O)[C@@H]2C[C@@H](O)CN2C(=O)[C@@H](NC(=O)COCCOCCCCCOc2cc(F)c([C@@H]3c4[nH]c5ccccc5c4C[C@@H](C)N3CC(C)(C)F)c(F)c2)C(C)(C)C)cc1 [Example 97, (2S,4R)-1-((S)-2-(2-(2-((5-(3,5-Difluoro-4-((1R,3R)-2-(2-fluoro-2-methylpropyl)-3-methyl-2,3,4,9-tetrahydro-1H-pyrido[3,4-b]indol-1-yl)phenoxy)pentyl)oxy)ethoxy)acetamido)-3,3-dimethylbutanoyl)-4-hydroxy-N-(4-(4-methylthiazol-5-yl)benzyl)pyrrolidine-2-carboxamide] | •• | 0.8
CC[C@H](C)[C@H](N)C(=O)O[C@@H]1C[C@@H](C(=O)NCc2ccc(-c3scnc3C)cc2)N(C(=O)[C@@H](NC(=O)COCCOCCOCCOc2cc(F)c([C@@H]3c4[nH]c5ccccc5c4C[C@@H](C)N3CC(C)(C)F)c(F)c2)C(C)(C)C)C1 [Example 99, (3R,5S)-1-((S)-2-(2-(2-(2-(2-(3,5-Difluoro-4-((1R,3R)-2-(2-fluoro-2-methylpropyl)-3-methyl-2,3,4,9-tetrahydro-1H-pyrido[3,4-b]indol-1-yl)phenoxy)ethoxy)ethoxy)ethoxy)acetamido)-3,3-dimethylbutanoyl)-5-((4-(4-methylthiazol-5-yl)benzyl)carbamoyl)pyrrolidin-3-yl L-isoleucinate Formate] | • | 1.6
Cc1ncsc1-c1ccc(CNC(=O)[C@@H]2C[C@@H](OC(=O)[C@H](C)NC(=O)[C@@H](N)C(C)C)CN2C(=O)[C@@H](NC(=O)COCCOCCOCCOc2cc(F)c([C@@H]3c4[nH]c5ccccc5c4C[C@@H](C)N3CC(C)(C)F)c(F)c2)C(C)(C)C)cc1 [Example 100, (3R,5S)-1-((S)-2-(2-(2-(2-(2-(3,5-Difluoro-4-((1R,3R)-2-(2-fluoro-2-methylpropyl)-3-methyl-2,3,4,9-tetrahydro-1H-pyrido[3,4-b]indol-1-yl)phenoxy)ethoxy)ethoxy)ethoxy)acetamido)-3,3-dimethylbutanoyl)-5-((4-(4-methylthiazol-5-yl)benzyl)carbamoyl)pyrrolidin-3-yl L-valyl-L-alaninate Formate] | •• | 0.4

Reference: patent publication US10519152B2, “Compounds and their use in treating cancer” (AstraZeneca AB, priority 2017, dated 2019)
